# Target: human mGluR2 (Homo sapiens (Human), UniProt Q14416)
# Assay: [35S]GTPγS binding assay (Affinity to mGluR2)
# Assay type: biochemical
# Details: cell membrane fraction of HEK293 cells stably expressing human mGluR2, glutamic acid 10 μM
# Method in brief: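 Membranes from HEK293 cells stably co-expressing human mGluR2 and SLC1A3 (1.8–3 μg protein) preincubated with compound 30 min at RT, then stimulated with 10 μM glutamate 15 min; [35S]GTPγS (0.8 kBq) with WGA-SPA beads 1 h, buffer with 3 μM GDP, 100 mM NaCl, 1 mM MgCl2. IC50 from inhibition of glutamate-specific binding.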
# [1] = inhibition of specific [35S]GTPγS binding
# Chain of human mGluR2 (Q14416 19-872): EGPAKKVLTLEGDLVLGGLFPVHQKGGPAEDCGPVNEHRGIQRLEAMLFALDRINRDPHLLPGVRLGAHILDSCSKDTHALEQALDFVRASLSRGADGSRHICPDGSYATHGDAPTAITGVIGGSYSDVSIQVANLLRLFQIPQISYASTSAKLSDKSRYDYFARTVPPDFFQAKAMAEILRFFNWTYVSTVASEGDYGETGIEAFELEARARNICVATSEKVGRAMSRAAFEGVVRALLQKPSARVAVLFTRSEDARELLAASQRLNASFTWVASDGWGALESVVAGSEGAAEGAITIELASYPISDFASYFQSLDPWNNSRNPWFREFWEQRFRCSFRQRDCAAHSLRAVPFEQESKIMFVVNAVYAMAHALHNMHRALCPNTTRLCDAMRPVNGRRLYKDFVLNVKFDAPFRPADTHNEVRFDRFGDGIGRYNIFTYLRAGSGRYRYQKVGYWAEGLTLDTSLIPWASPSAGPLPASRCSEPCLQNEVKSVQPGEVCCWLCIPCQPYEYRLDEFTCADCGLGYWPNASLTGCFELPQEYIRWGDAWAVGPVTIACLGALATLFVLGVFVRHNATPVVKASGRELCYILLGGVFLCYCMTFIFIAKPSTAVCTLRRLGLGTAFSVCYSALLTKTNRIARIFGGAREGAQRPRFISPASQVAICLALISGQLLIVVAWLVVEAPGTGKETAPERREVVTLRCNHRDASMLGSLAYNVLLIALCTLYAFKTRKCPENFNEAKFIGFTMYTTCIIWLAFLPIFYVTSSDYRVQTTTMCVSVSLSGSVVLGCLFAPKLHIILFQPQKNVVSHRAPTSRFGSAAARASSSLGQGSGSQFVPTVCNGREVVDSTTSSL
Compound,IC50 [1] [nM],IC50 [nM]
COc1cc(-c2nc(-c3ccnc(C)c3)c3n2C[C@@H](CF)OCC3)ccc1C(F)F [Example 160],24.1,
Cc1cc(-c2nc(-c3ccc(F)c(OCC(F)F)c3)n3c2CCOCC3)cc(C)n1 [Example 92],,95.8
COc1cc(-c2nc(-c3cc(C)nc(C(F)F)c3)c3n2C[C@@H](C)OCC3)ccc1OC(F)F [Example 192],5,
COc1cc(-c2nc(-c3cc(C)nc(C)c3)c3n2CCOCC3)ccc1C(F)(F)F [Example 122],,22.1
COc1cc(-c2nc(-c3ccnc(C)c3)c3n2C[C@@H](CF)OCC3)ccc1OC(F)F [Example 164],36.8,
COc1cc(-c2nc(-c3cc(C)nc(C)c3)c3n2CCOCC3)ccc1OC(F)F [Example 127],,12.1
Cc1cc(-c2nc(-c3ccc(F)c(OCC4CCC4)c3)n3c2CCOCC3)cc(C)n1 [Example 97],,25.4
Cc1cc(-c2nc(-c3ccc(OC(F)F)c(F)c3)n3c2CCOCC3)ccn1 [Example 120],,47.2
Cc1cc(-c2nc(-c3ccc(Cl)c(C#N)c3)n3c2CCO[C@H](C)C3)cc(C)n1 [Example 130],,26
Cc1cc(-c2nc(-c3ccc(C)c(OCC4CCOCC4)c3)n3c2CCO[C@H](C)C3)cc(C)n1 [Example 228],82,
Cc1cc(-c2nc(-c3ccc(F)c(C(F)(F)F)c3)n3c2CCO[C@H](C)C3)ccn1 [Example 151],26.4,
Cc1cc(-c2nc(-c3ccc(F)c(OCC4(C)COC4)c3)n3c2CCO[C@H](C)C3)cc(C)n1 [Example 99],,103
"Cc1cc(-c2nc(-c3ccc(OCC(F)(F)F)c(F)c3)n3c2CCOCC3)cc(C)n1 [Example 2, 1-(2,6-dimethylpyridin-4-yl)-3-(3-fluoro-4-(2,2,2-trifluoroethoxy)phenyl)-5,6,8,9-tetrahydroimidazo[1,5-d][1,4]oxazepine]",,97.4
"COc1cc(-c2nc(-c3cc(C)nc(C)c3)c3n2C[C@@H](CF)OCC3)ccc1C(F)F [Example 28, (S)-3-(4-(difluoromethyl)-3-methoxyphenyl)-1-(2,6-dimethylpyridin-4-yl)-6-(fluoromethyl)-5,6,8,9-tetrahydroimidazo[1,5-d][1,4]oxazepine]",,16.2
Cc1cc(-c2nc(-c3ccc(OC(F)F)c(Cl)c3)n3c2CCO[C@H](CF)C3)cc(C)n1 [Example 233],2,
COc1cc(-c2nc(-c3ccnc(C)c3)c3n2C[C@@H](C)OCC3)ccc1F [Example 141],51.9,
CCc1ccc(-c2nc(-c3cc(C)nc(C)c3)c3n2C[C@@H](C)OCC3)cc1OCC1CC1 [Example 222],17.2,

# More lines, now with the values ahead:
IC50 [1] [nM],IC50 [nM],Compound
,5.7,Cc1cc(-c2nc(-c3ccc(Cl)c(C(F)(F)F)c3)n3c2CCO[C@H](C)C3)cc(C)n1 [Example 140]
,20.9,Cc1cc(-c2nc(-c3ccc(OC(F)(F)F)cc3)n3c2CCO[C@H](CF)C3)cc(C)n1 [Example 69]
,3.2,"COc1cc(-c2nc(-c3cc(C)nc(C)c3)c3n2C[C@@H](C)OCC3)ccc1OC(F)(F)F [Example 25, (R)-1-(2,6-dimethylpyridin-4-yl)-3-(3-methoxy-4-(trifluoromethoxy)phenyl)-6-methyl-5,6,8,9-tetrahydroimidazo[1,5-d][1,4]oxazepine]"
,2.8,"CCOc1ccc(-c2nc(-c3cc(C)nc(C)c3)c3n2C[C@@H](C)OCC3)cc1Cl [Example 34, (R)-3-(3-chloro-4-ethoxyphenyl)-1-(2,6-dimethylpyridin-4-yl)-6-methyl-5,6,8,9-tetrahydroimidazo[1,5-d][1,4]oxazepine]"
,4.4,Cc1cc(-c2nc(-c3ccc(OC(F)(F)F)cc3)n3c2CCO[C@H](C)C3)cc(CF)n1 [Example 86]
,20.5,Cc1cc(-c2nc(-c3ccc(Cl)c(C)c3)n3c2CCO[C@H](C)C3)cc(C)n1 [Example 52]
18.7,,Cc1cc(-c2nc(-c3ccc(OC(F)(F)F)c(F)c3)n3c2CCO[C@H](C)C3)cc(CF)n1 [Example 206]
36.8,,Cc1cc(-c2nc(-c3ccc(Cl)c(CF)c3)n3c2CCO[C@H](C)C3)cc(C)n1 [Example 238]
,3.8,"COc1cc(-c2nc(-c3cc(C)nc(C)c3)c3n2C[C@@H](CF)OCC3)ccc1C(F)(F)F [Example 29, (S)-1-(2,6-dimethylpyridin-4-yl)-6-(fluoromethyl)-3-(3-methoxy-4-(trifluoromethyl)phenyl)-5,6,8,9-tetrahydroimidazo[1,5-d][1,4]oxazepine]"
,1.9,"Cc1cc(-c2nc(-c3ccc(OC(F)(F)F)c(C)c3)n3c2CCO[C@H](C)C3)ccn1 [Example 9, (R)-6-methyl-3-(3-methyl-4-(trifluoromethoxy)phenyl)-1-(2-methylpyridin-4-yl)-5,6,8,9-tetrahydroimidazo[1,5-d][1,4]oxazepine]"
4.6,,Cc1cc(-c2nc(-c3ccc(OC(F)(F)F)c(C#N)c3)n3c2CCO[C@H](C)C3)ccn1 [Example 169]
43.1,,Cc1cc(-c2nc(-c3ccc(OC(F)(F)F)c(F)c3)n3c2CCO[C@H](CF)C3)cc(CO)n1 [Example 170]
18.5,,COc1ccc(-c2nc(-c3cc(C)nc(C)c3)c3n2C[C@@H](CF)OCC3)cc1OC(F)(F)F [Example 175]
4,,Cc1cc(-c2nc(-c3ccc(OC(F)(F)F)c(C)c3)n3c2CCO[C@H](C)C3)cc(CF)n1 [Example 204]
,2.8,"Cc1cc(-c2nc(-c3ccc(OC(F)F)c(Cl)c3)n3c2CCO[C@H](C)C3)cc(C)n1 [Example 32, (R)-3-(3-chloro-4-(difluoromethoxy)phenyl)-1-(2,6-dimethylpyridin-4-yl)-6-methyl-5,6,8,9-tetrahydroimidazo[1,5-d][1,4]oxazepine]"
4.9,,Cc1cc(-c2nc(-c3ccc(OC(F)(F)F)c(C#N)c3)n3c2CCO[C@H](C)C3)cc(CF)n1 [Example 203]
7.3,,COc1cc(-c2nc(-c3cc(C)nc(CO)c3)c3n2C[C@@H](CF)OCC3)ccc1C(F)(F)F [Example 156]
,13.2,Cc1cc(-c2nc(-c3ccc(Cl)c(OC(F)(F)F)c3)n3c2CCO[C@H](C)C3)cc(C)n1 [Example 68]
20.8,,Cc1cc(-c2nc(-c3ccc(OC(F)F)c(C)c3)n3c2CCO[C@H](CF)C3)cc(C(F)F)n1 [Example 188]
